Reference: patent US9212164B2, “Pesticidal compositions and processes related thereto” (Dow AgroSciences LLC, priority 2012, dated 2015)

Experiments:
[1] = system: Cabbage Looper (CL) (Trichoplusia ni); experiment: Bioassays on CL, 128-well diet tray assay; type: in vivo; conditions: 168 h, 50 μg/cm^2 on artificial diet, second instar larvae, five to seven days, 25° C., read-out: CL Rating (percent mortality)
Experimental: (§1) Certain molecules disclosed in this document were tested against BAW, CEW and CL using procedures described in the following examples. In the reporting of the results, the “BAW & CEW & CL Rating Table” was used (See Table Section).
Bioassays on CL (Trichoplusia ni)
Bioassays on CL were conducted using a 128-well diet tray assay. One to five second instar CL larvae were placed in each well (3 mL) of the diet tray that had been previously filled with 1 mL of artificial diet to which 50 μg/cm^2 of the test compound (dissolved in 50 μL of 90:10 acetone-water mixture) had been applied (to each of eight wells) and then allowed to dry. Trays were covered with a clear self-adhesive cover, and held at 25° C., 14:10 light-dark for five to seven days. Percent mortality was recorded for the larvae in each well; activity in the eight wells was then averaged. The results are indicated in the table entitled “Table 4: Assay Results Part 2” (See Table Section).

[2] = system: Beet Armyworm (BAW) (Spodoptera exigua); experiment: Bioassays on BAW, 128-well diet tray assay; type: in vivo; conditions: Spodoptera exigua, 168 h; 50 μg/cm^2 on artificial diet, second instar larvae, five to seven days, 25° C.; read-out: BAW Rating (percent mortality)
Experimental: as §1
Bioassays on BAW (Spodoptera exigua)
Bioassays on BAW were conducted using a 128-well diet tray assay. One to five second instar BAW larvae were placed in each well (3 mL) of the diet tray that had been previously filled with 1 mL of artificial diet to which 50 μg/cm^2 of the test compound (dissolved in 50 μL of 90:10 acetone-water mixture) had been applied (to each of eight wells) and then allowed to dry. Trays were covered with a clear self-adhesive cover, and held at 25° C., 14:10 light-dark for five to seven days. Percent mortality was recorded for the larvae in each well; activity in the eight wells was then averaged. The results are indicated in the tables entitled “Table 3: Assay Results Part 1” and “Table 4: Assay Results Part 2” (See Table Section).

| SMILES | mortality at 50 µg/cm2 [1] [%] | mortality at 50 µg/cm2 [2] [%] |
| --- | --- | --- |
| O=C(NC1(C(=O)NCCC(F)(F)F)CC1)c1ccc(/C=C/C(c2cc(Cl)c(Cl)c(Cl)c2)C(F)(F)F)cc1C(F)(F)F (stereo not shown) [Compound P1035] | 50 to 100 | 50 to 100 |
| O=C(NC1(C(=O)NCC(F)(F)F)CC1)c1ccc(/C=C/C(c2ccc(Cl)c([N+](=O)[O-])c2)C(F)(F)F)cc1Br (stereo not shown) [Compound P468] | 50 to 100 | 50 to 100 |
| O=C(NC1(C(=O)NCCC(F)(F)F)CC1)c1ccc(/C=C/C(c2cc(Br)cc(Br)c2)C(F)(F)F)cc1Br (stereo not shown) [Compound P1213] | 50 to 100 | 50 to 100 |
| O=C(NC1(C(=O)NCC(F)(F)F)CC1)c1ccc(/C=C/C(c2cc(Cl)c(Cl)cc2Cl)C(F)(F)F)cc1Br (stereo not shown) [Compound P108] | 50 to 100 | 50 to 100 |
| O=C(NC1CC1(F)F)c1ccc(/C=C/C(c2cc(Cl)c(Cl)c(Cl)c2)C(F)(F)F)cc1Br (stereo not shown) [Compound P31] | 50 to 100 | 50 to 100 |
| O=C(NC1(C(=O)NCC(F)(F)F)CC1)c1ccc(/C=C/C(c2cc(F)cc(Br)c2)C(F)(F)F)cc1C(F)(F)F (stereo not shown) [Compound P200] | 50 to 100 | 50 to 100 |
| O=C(NC1(C(=O)NCC(F)(F)F)CC1)c1ccc(/C=C/C(c2cc(Cl)c(Cl)c(Cl)c2)C(F)(F)C(F)(F)F)cc1Br (stereo not shown) [Compound P1003] | 50 to 100 | 50 to 100 |
| O=C(NC1(C(=O)NCC(F)(F)F)CC1)c1ccc(/C=C/C(c2ccc(Cl)c(Cl)c2)C(F)(F)F)cc1Br (stereo not shown) [Compound P1093] | 50 to 100 | 50 to 100 |
| O=C(NC1(C(=O)NCC(F)(F)F)CC1)c1ccc(/C=C/C(c2cc(Cl)c(Cl)c(Cl)c2)C(F)(F)F)cc1Br (stereo not shown) [Compound F3] | 50 to 100 | 50 to 100 |
| CCc1cc(Cl)cc(C(/C=C/c2ccc(C(=O)NC3(C(=O)NCC(F)(F)F)CC3)c(C(F)(F)F)c2)C(F)(F)F)c1 (stereo not shown) [FA10] | 50 to 100 | 50 to 100 |
| O=C(NC1(C(=O)NCC(F)(F)F)CC1)c1ccc(/C=C/C(c2cc(Br)cc(Br)c2)C(F)(F)F)cc1Br (stereo not shown) [Compound P1183] | 50 to 100 | 50 to 100 |
| O=C(NC1(C(=O)NC2CCCC2)CC1)c1ccc(/C=C/C(c2cc(Cl)c(Cl)c(Cl)c2)C(F)(F)F)cc1Br (stereo not shown) [FA17] | 50 to 100 | 50 to 100 |
| O=C(NC1(C(=O)NCC(F)(F)F)CC1)c1ccc(/C=C/C(c2ccc(Br)c(Br)c2)C(F)(F)F)cc1Br (stereo not shown) [Compound P423] | 50 to 100 | 50 to 100 |
| O=C(NC1(C(=S)NCC(F)(F)F)CC1)c1ccc(/C=C/C(c2cc(Cl)c(Cl)c(Cl)c2)C(F)(F)F)cc1Cl (stereo not shown) [Compound P1010] | 50 to 100 | 50 to 100 |
| O=C(NC1(C(=O)NCC(F)(F)F)CC1)c1ccc(/C=C/C(c2cc(Cl)cc(Cl)c2)C(F)(F)F)cc1C(F)(F)F (stereo not shown) [Compound P1050] | 50 to 100 | 50 to 100 |
| CC(C)CNC(=O)C1(NC(=O)c2ccc(/C=C/C(c3cc(Cl)c(Cl)c(Cl)c3)C(F)(F)F)cc2Br)CC1 (stereo not shown) [FA30] | 50 to 100 | 50 to 100 |
| O=C(NC1(C(=O)NCC(F)F)CC1)c1ccc(/C=C/C(c2cc(Cl)c(Cl)c(Cl)c2)C(F)(F)F)cc1Br (stereo not shown) [FA32] | 50 to 100 | 50 to 100 |
| O=C(NC1(C(=S)NCC(F)(F)F)CC1)c1ccc(/C=C/C(c2cc(Cl)c(Cl)c(Cl)c2)C(F)(F)F)cc1Br (stereo not shown) [Compound P1009] | 50 to 100 | 50 to 100 |

| SMILES | mortality at 50 µg/cm2 [1] [%] | mortality at 50 µg/cm2 [2] [%] |
| --- | --- | --- |
| N#Cc1cc(C(/C=C/c2ccc(C(=O)NC3(C(=O)NCC(F)(F)F)CC3)c(Br)c2)C(F)(F)F)ccc1F (stereo not shown) [Compound P513] | 50 to 100 | 50 to 100 |
| O=C(NC1(C(=S)NCC(F)(F)F)CC1)c1ccc(/C=C/C(c2cc(Cl)c(Cl)c(Cl)c2)C(F)(F)F)cc1C(F)(F)F (stereo not shown) [Compound F6, (E)-4-(4,4,4-Trifluoro-3-(3,4,5-trichlorophenyl)but-1-enyl)-N-(1-(2,2,2-trifluoroethylcarbamothioyl)cyclopropyl)-2-(trifluoromethyl)benzamide] | 50 to 100 | 50 to 100 |
| Cc1cc(C(/C=C/c2ccc(C(=O)NC3(C(=O)NCC(F)(F)F)CC3)c(Br)c2)C(F)(F)F)cc(C)c1F (stereo not shown) [Compound P333] | 50 to 100 | 50 to 100 |
| O=C(NC1(C(=O)NCC(F)(F)F)CC1)c1ccc(/C=C/C(c2cc(Cl)c(Br)c(Cl)c2)C(F)(F)F)cc1C(F)(F)F (stereo not shown) [FA8] | 50 to 100 | 50 to 100 |
| O=C(NC1(C(=O)NCC(F)(F)F)CC1)c1ccc(/C=C/C(c2ccc(Br)c(Br)c2)C(F)(F)F)cc1C(F)(F)F (stereo not shown) [Compound P425] | 50 to 100 | 50 to 100 |
| O=C(NC1(C(=O)NCC(F)(F)F)CC1)c1ccc(/C=C/C(c2cc(Cl)cc(Cl)c2)C(F)(F)F)cc1Br (stereo not shown) [Compound P1048] | 50 to 100 | 50 to 100 |
| O=C(NC1(C(=O)NCC(F)(F)F)CC1)c1ccc(/C=C/C(c2cc(Cl)c(Cl)c(Cl)c2)C(F)(F)F)cc1Cl (stereo not shown) [Compound F1, (E)-2-Chloro-4-(4,4,4-trifluoro-3-(3,4,5-trichlorophenyl)but-1-enyl)-N-(1-(2,2,2-trifluoroethylcarbamoyl)cyclopropyl)benzamide] | 50 to 100 | 50 to 100 |
| Cc1cc(C(/C=C/c2ccc(C(=O)NC3(C(=O)NCC(F)(F)F)CC3)c(C(F)(F)F)c2)C(F)(F)F)cc(C)c1Cl (stereo not shown) [FA14] | 50 to 100 | 50 to 100 |
| CCCN(C)C(=O)C1(NC(=O)c2ccc(/C=C/C(c3cc(Cl)c(Cl)c(Cl)c3)C(F)(F)F)cc2Br)CC1 (stereo not shown) [FA42] | 50 to 100 | 50 to 100 |
| O=C(NC1(C(=O)NCC(F)(F)F)CC1)c1ccc(/C=C/C(c2cccc(OC(F)(F)F)c2)C(F)(F)F)cc1Br (stereo not shown) [Compound P153] | 50 to 100 | 50 to 100 |
| O=C(NC1(C(=O)NC2CCSC2)CC1)c1ccc(/C=C/C(c2cc(Cl)c(Cl)c(Cl)c2)C(F)(F)F)cc1Br (stereo not shown) [FA19] | 50 to 100 | 50 to 100 |
| O=C(NC1(C(=O)NC2CCCOC2)CC1)c1ccc(/C=C/C(c2cc(Cl)c(Cl)c(Cl)c2)C(F)(F)F)cc1Br (stereo not shown) [FA47] | 50 to 100 | 50 to 100 |
| O=C(NC1(C(=O)NCc2ccc(C(F)(F)F)cc2)CC1)c1ccc(/C=C/C(c2cc(Cl)c(Cl)c(Cl)c2)C(F)(F)F)cc1Br (stereo not shown) [FA34] | 50 to 100 | 50 to 100 |
| O=C(NC1(C(=O)Nc2ccc(C(F)(F)F)cc2)CC1)c1ccc(/C=C/C(c2cc(Cl)c(Cl)c(Cl)c2)C(F)(F)F)cc1Br (stereo not shown) [FA36] | 0 | 0 |
| N#Cc1cc(C(/C=C/c2ccc(C(=O)NC3(C(=O)NCC(F)(F)F)CC3)c(C(F)(F)F)c2)C(F)(F)F)ccc1F (stereo not shown) [Compound P515] | 50 to 100 | 50 to 100 |
| O=C(NC1(C(=O)NCc2ccc(Cl)cc2)CC1)c1ccc(/C=C/C(c2cc(Cl)c(Cl)c(Cl)c2)C(F)(F)F)cc1Br (stereo not shown) [FA16] | 50 to 100 | 50 to 100 |
| O=C(NC1(C(=O)NCc2cccc(Cl)c2)CC1)c1ccc(/C=C/C(c2cc(Cl)c(Cl)c(Cl)c2)C(F)(F)F)cc1Br (stereo not shown) [FA27] | 50 to 100 | 50 to 100 |
